Data on 32 compounds can be found in US20060223996A1, “IL-12 modulatory compounds” (Synta Pharmaceuticals Corp., priority 2004, published 2006).

The structures appear in SMILES notation. A value given as a limit tells only on which side of the number the result lay.

The assay has as its system IL-12. Description: Human in vitro assay: inhibition of IL-12 production in IFNγ/LPS- or IFNγ/SAC-stimulated human PBMC or THP-1 cells (ELISA). In kind it is cell-based. As to conditions: read-out: IC50 Range (representative in vitro IC50 data). In a few lines: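 Sandwich ELISA for IL-12 (p70, p40) on supernatants collected 18 h after stimulation gave IC50 values; MTS monitored viability. THP-1 cells: IFNγ 100 U/mL priming 22 h, SAC 0.025%. PBMC: IFNγ 30 U/mL for 22 h plus LPS 1 μg/mL, or IFNγ 100 U/mL plus SAC 0.01%. Final DMSO 0.25%.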

For `COCCN(C)c1cc(C(=O)Nc2cc(-c3ccc(Cl)cc3)nn2C)nc(N2CCOCC2)n1` [Compound 227, 6-[(2-Methoxy-ethyl)-methyl-amino]-2-morpholin-4-yl-pyrimidine-4-carboxylic acid [5-(4-chloro-phenyl)-2-methyl-2H-pyrazol-3-yl]-amide], the IC50 is no less than 1000 nM. The result for `CCc1c(C)[nH]c2ccc(NC(=O)c3cc(N4CCC5(CC4)OCCO5)nc(N4CCOCC4)n3)cc12` [Compound 180, 6-(1,4-Dioxa-8-aza-spiro[4.5]dec-8-yl)-2-morpholin-4-yl-pyrimidine-4-carboxylic acid (3-ethyl-2-methyl-1H-indol-5-yl)-amide] reads less than 1000 nM; that for `COCCN(C)c1cc(C(=O)Nc2ccc3c(c2)N(C)CC3)nc(N2CCOCC2)n1` [Compound 211, 6-((2-methoxyethyl)(methyl)amino)-N-(1-methylindolin-6-yl)-2-morpholinopyrimidine-4-carboxamide], less than 1000 nM. `COCCN(C)c1cc(C(=O)Nc2ccc3cnn(C)c3c2)nc(N2CCOCC2)n1` [Compound 217, 6-((2-methoxyethyl)(methyl)amino)-N-(1-methyl-1H-indazol-6-yl)-2-morpholinopyrimidine-4-carboxamide]: the half-maximal inhibitory concentration (IC50) was no less than 1000 nM. The result for `COCCN(C)c1cc(C(=O)Nc2nnc(C(C)(C)C)s2)nc(N2CCOCC2)n1` [Compound 236, 6-[(2-Methoxy-ethyl)-methyl-amino]-2-morpholin-4-yl-pyrimidine-4-carboxylic acid (5-tert-butyl-[1,3,4]thiadiazol-2-yl)-amide] reads no less than 1000 nM; that for `O=C(Nc1cccc(N2CCOCC2)c1)c1cc(OCCN2CCOCC2)nc(N2CCOCC2)n1` [Compound 295, 2-Morpholin-4-yl-6-(2-morpholin-4-yl-ethoxy)-pyrimidine-4-carboxylic acid (3-morpholin-4-yl-phenyl)-amide], less than 1000 nM; that for `COCCNc1cc(C(=O)Nc2ccc3[nH]c(C)c(C)c3c2)nc(N2CCOCC2)n1` [Compound 252, N-(2,3-dimethyl-1H-indol-5-yl)-6-(2-methoxyethylamino)-2-morpholinopyrimidine-4-carboxamide], less than 1000 nM. With `Cc1[nH]c2ccc(NC(=O)c3cc(NCC(=O)N4CCC(C(N)=O)CC4)nc(N4CCOCC4)n3)cc2c1C` [Compound 99, 6-[2-(4-Carbamoyl-piperidin-1-yl)-2-oxo-ethylamino]-2-morpholin-4-yl-pyrimidine-4-carboxylic acid (2,3-dimethyl-1H-indol-5-yl)-amide], the half-maximal inhibitory concentration (IC50) was less than 1000 nM. In the case of `O=C(Nc1ccc2[nH]c3c(c2c1)CCCC3)c1cc(N2CCC(O)CC2)nc(N2CCOCC2)n1` [Compound 184, 6-(4-Hydroxy-piperidin-1-yl)-2-morpholin-4-yl-pyrimidine-4-carboxylic acid (6,7,8,9-tetrahydro-5H-carbazol-3-yl)-amide], the concentration for half-maximal inhibition (IC50) is less than 1000 nM. For the compound `CCc1c(C)[nH]c2ccc(NC(=O)Nc3cc(N4CCN(c5ccccn5)CC4)nc(N4CCOCC4)n3)cc12` [Compound 269, 1-(3-ethyl-2-methyl-1H-indol-5-yl)-3-(2-morpholino-6-(4-(pyridin-2-yl)piperazin-1-yl)pyrimidin-4-yl)urea], the IC50 is less than 1000 nM. As for `O=C(Nc1cccc(I)c1)Nc1cc(OCCN2CCOCC2)nc(N2CCOCC2)n1` [Compound 130, 1-(3-Iodo-phenyl)-3-[2-morpholin-4-yl-6-(2-morpholin-4-yl-ethoxy)-pyrimidin-4-yl]-urea], the concentration for half-maximal inhibition (IC50) is less than 1000 nM. With `CCN1CCc2ccc(NC(=O)c3cc(OCCN4CCOCC4)nc(N4CCOCC4)n3)cc21` [Compound 221, N-(1-ethylindolin-6-yl)-2-morpholino-6-(2-morpholinoethoxy)pyrimidine-4-carboxamide], the IC50 was less than 1000 nM.

In the case of `COCCN(C)c1cc(C(=O)Nc2ccc(F)c(N(C)C)c2)nc(N2CCOCC2)n1` [Compound 215, N-(3-(dimethylamino)-4-fluorophenyl)-6-((2-methoxyethyl)(methyl)amino)-2-morpholinopyrimidine-4-carboxamide], the IC50 was less than 1000 nM.

Regarding `Cc1[nH]c2ccc(NC(=O)c3cc(N(C)CC(=O)N4CCCCC4)nc(N4CCOCC4)n3)cc2c1C` [Compound 113, 6-[Methyl-(2-oxo-2-piperidin-1-yl-ethyl)-amino]-2-morpholin-4-yl-pyrimidine-4-carboxylic acid (2,3-dimethyl-1H-indol-5-yl)-amide], the IC50 is less than 1000 nM. Under `O=C(Nc1ccc(O)cc1)Nc1cc(OCCN2CCOCC2)nc(N2CCOCC2)n1` [Compound 143, 1-(4-Hydroxy-phenyl)-3-[2-morpholin-4-yl-6-(2-morpholin-4-yl-ethoxy)-pyrimidin-4-yl]-urea] stands less than 1000 nM; under `Cc1[nH]c2ccc(NC(=O)c3cc(NCC(=O)NC4CCCC4)nc(N4CCOCC4)n3)cc2c1C` [Compound 110, 6-(Cyclopentylcarbamoylmethyl-amino)-2-morpholin-4-yl-pyrimidine-4-carboxylic acid (2,3-dimethyl-1H-indol-5-yl)-amide], less than 1000 nM; under `COCCN(C)c1cc(C(=O)Nc2nc(C(C)(C)C)cs2)nc(N2CCOCC2)n1` [Compound 201, N-(4-tert-butylthiazol-2-yl)-6-((2-methoxyethyl)(methyl)amino)-2-morpholinopyrimidine-4-carboxamide], no less than 1000 nM. The result for `Cc1[nH]c2ccc(NC(=O)c3cc(N4CCC(O)CC4)cc(N4CCOCC4)n3)cc2c1C` [Compound 171, 4-Hydroxy-6′-morpholin-4-yl-3,4,5,6-tetrahydro-2H-[1,4′]bipyridinyl-2′-carboxylic acid (2,3-dimethyl-1H-indol-5-yl)-amide] reads less than 1000 nM; that for `O=C(Nc1ccc2c(c1)CCC2)Nc1cc(N2CCOCC2)nc(OCCN2CCOCC2)n1` [Compound 120, 1-Indan-5-yl-3-[6-morpholin-4-yl-2-(2-morpholin-4-yl-ethoxy)-pyrimidin-4-yl]-urea], no less than 1000 nM; that for `COc1ccc(CCOc2cc(C(=O)Nc3cccc(C)c3)cc(N3CCOCC3)n2)cc1OC` [Compound 65, 2-[2-(3,4-Dimethoxy-phenyl)-ethoxy]-6-morpholin-4-yl-N-m-tolyl-isonicotinamide], no less than 1000 nM. Under `CCc1c[nH]c2ccc(NC(=O)c3cc(N4CCC(O)CC4)cc(N4CCOCC4)n3)cc12` [Compound 174, 4-Hydroxy-6′-morpholin-4-yl-3,4,5,6-tetrahydro-2H-[1,4′]bipyridinyl-2′-carboxylic acid (3-ethyl-1H-indol-5-yl)-amide] stands less than 1000 nM. As to `CN(C)c1ccc(NC(=O)c2cc(OCCN3CCOCC3)nc(N3CCOCC3)n2)cc1` [Compound 57, 2-Morpholin-4-yl-6-(2-morpholin-4-yl-ethoxy)-pyrimidine-4-carboxylic acid (4-dimethylamino-phenyl)-amide], the IC50 is no less than 1000 nM. The result for `Cc1[nH]c2ccc(NC(=O)c3cc(N4CCOCC4)nc(N4C[C@@H](C)O[C@@H](C)C4)n3)cc2c1C` [Compound 281, 2-(2,6-Dimethyl-morpholin-4-yl)-6-morpholin-4-yl-pyrimidine-4-carboxylic acid (2,3-dimethyl-1H-indol-5-yl)-amide] reads less than 1000 nM. As for `CNc1cc(NC(=O)c2cc(OCCN3CCOCC3)nc(N3CCOCC3)n2)ccc1C` [Compound 291, 2-Morpholin-4-yl-6-(2-morpholin-4-yl-ethoxy)-pyrimidine-4-carboxylic acid (4-methyl-3-methylamino-phenyl)-amide], the half-maximal inhibitory concentration (IC50) was less than 1000 nM. The result for `Cc1cccc(NC(=O)Nc2cc(OCC(C)(C)O)nc(N3CCOCC3)n2)c1` [Compound 11, 1-[6-(2-Hydroxy-2-methyl-propoxy)-2-morpholin-4-yl-pyrimidin-4-yl]-3-m-tolyl-urea] reads no less than 1000 nM; that for `CCN(CC)C(=O)Nc1cccc(NC(=O)c2cc(OCCN3CCOCC3)nc(N3CCOCC3)n2)c1` [Compound 198, N-(3-(3,3-diethylureido)phenyl)-2-morpholino-6-(2-morpholinoethoxy)pyrimidine-4-carboxamide], no less than 1000 nM; that for `Cc1[nH]c2ccc(NC(=O)c3cc(N4CCN(c5ccccn5)CC4)nc(N4CCOCC4)n3)cc2c1C` [Compound 90, 2-Morpholin-4-yl-6-(4-pyridin-2-yl-piperazin-1-yl)-pyrimidine-4-carboxylic acid (2,3-dimethyl-1H-indol-5-yl)-amide], less than 1000 nM. Under `Cc1[nH]c2ccc(NC(=O)c3cc(N4CCN(C)CC4)nc(N4CCOCC4)n3)cc2c1C` [Compound 251, N-(2,3-dimethyl-1H-indol-5-yl)-6-(4-methylpiperazin-1-yl)-2-morpholinopyrimidine-4-carboxamide] stands less than 1000 nM; under `Cc1[nH]c2ccc(NC(=O)c3cc(NCC(=O)N(C)C)nc(N4CCOCC4)n3)cc2c1C` [Compound 112, 6-(Dimethylcarbamoylmethyl-amino)-2-morpholin-4-yl-pyrimidine-4-carboxylic acid (2,3-dimethyl-1H-indol-5-yl)-amide], less than 1000 nM; under `COCCNC(=O)CNc1cc(C(=O)Nc2ccc3[nH]c(C)c(C)c3c2)nc(N2CCOCC2)n1` [Compound 98, 6-{[(2-Methoxy-ethylcarbamoyl)-methyl]-amino}-2-morpholin-4-yl-pyrimidine-4-carboxylic acid (2,3-dimethyl-1H-indol-5-yl)-amide], less than 1000 nM. The result for `CCN(CC)c1cc(C(=O)Nc2ccc3[nH]c(C)c(C)c3c2)nc(N2CCOCC2)n1` [Compound 93, 6-Diethylamino-2-morpholin-4-yl-pyrimidine-4-carboxylic acid (2,3-dimethyl-1H-indol-5-yl)-amide] reads less than 1000 nM. In the case of `CCc1c(C)[nH]c2ccc(NC(=O)c3cc(N4CCC(O)CC4)nc(N4CCOCC4)n3)cc12` [Compound 177, 6-(4-Hydroxy-piperidin-1-yl)-2-morpholin-4-yl-pyrimidine-4-carboxylic acid (3-ethyl-2-methyl-1H-indol-5-yl)-amide], the IC50 was less than 1000 nM.
